Two compounds from patent US20030162759A1, “Aldosterone blocker therapy to prevent or treat inflammation-related disorders” (priority 2000, published 2003) can be followed below.

“Also recorded” adds a separate entry of the source.

Common to all, as to format: in vivo, rat
One assay has as its system aldosterone infused rats. Briefly: Assay B aldosterone infusion model: myocardial fibrosis (interstitial collagen volume fraction, hydroxyproline). The following applies: aldosterone/salt treatment, 4 weeks. The protocol:
Assay B: In vivo Aldosterone Infusion Model Male Sprague Dawley rats (n=39; BW=250 g) […] Uni-nephrectomy performed during implantation of mini-pumps 2. Aldosterone (0.75 mg/hr, sc via aizet minipump) 2. […] 1. […] Sacrifice after 4 weeks. Hearts were stained with hematoxylin&eosin and the collagen specific dye picro-sirius red and were analyzed for determination of interstitial collagen volume fraction and morphologic abnormalities (i.e. necrosis, vascular injury). Hydroxyproline concentration was measured in the frozen hearts.

A further assay has as its system COX-2. As to the kind of experiment: Assay B aldosterone infusion model: COX-2 mRNA in heart by quantitative RT-PCR (Taqman). The protocol: (§1) Assay B: In vivo Aldosterone Infusion Model Male Sprague Dawley rats (n=39; BW=250 g) […] Uni-nephrectomy performed during implantation of mini-pumps […] Aldosterone ([…], sc via aizet minipump) […] 1. […] Sacrifice after 4 weeks. Hearts were harvested and divided by half through a transverse section at the mid-ventricles: The upper half was stored into formalin. The bottom part was snap-frozen in liquid nitrogen for biochemical analysis. Determination of osteopontin and COX-2 was performed by quantitative RT-PCR (Taqman). Osteopontin was also identified in the heart by immunohistochemistry.
In general terms: Real-time PCR tracks product formation cycle by cycle.

The test system of assay [1] is osteopontin. As to the kind of experiment: Assay B aldosterone infusion model: serum (circulating) osteopontin at 28 days. The note with it: NaCl 1% drinking rats with aldosterone and eplerenone. The protocol:
Assay B: In vivo Aldosterone Infusion Model Male Sprague Dawley rats (n=39; BW=250 g) […] Uni-nephrectomy performed during implantation of mini-pumps 2. Aldosterone ([…], sc via aizet minipump) 2. […] Sacrifice after 4 weeks.

Assay [2] deals with stroke-prone spontaneously hypertensive rats. As to the kind of experiment: Stroke-prone spontaneously hypertensive rats: survival and cerebral injury (FIGS. 37-38). The following applies: stroke-prone spontaneously hypertensive rats (FIGS. 37, 38).
Assay [3] relates to osteopontin. Briefly: Assay B aldosterone infusion model: osteopontin mRNA in heart by quantitative RT-PCR (Taqman). The protocol:
as §1

The subject of assay [4] is angiotensin II infused, captopril treated stroke prone spontaneously hypertensive rats. Briefly: Angiotensin II infused, captopril treated stroke prone spontaneously hypertensive rats: urinary protein excretion and renal injury (FIGS. 35-36).
Assay [5] relates to osteopontin, ED-1, CD-3, ICAM-1, VCAM-1. Briefly: Assay C: immunohistochemistry of myocardial tissue (osteopontin, ED-1, CD-3, ICAM-1, VCAM-1). The following applies: aldosterone+salt treated rats; eplerenone 100 mg/kg/day. The protocol: The procedure of Assay B was expanded upon in a further study. […] Myocardial tissue from animals in each treatment group was examined after 7, 14, or 30 days of treatment. […] Lesions were preceded by the expression and progressive upregulation of proinflammatory molecules.
Potassium chloride supplementation was added to the saline solution in order to prevent the potential hypokalemia associated with aldosterone excess.
At the time of the surgery, an Alzet 2002 osmotic minipump (Alza Corp., Palo Alto, Calif.) containing either vehicle (9% ethanol/87% propylene glycol/4% dH2O) or 1.0 mg/mL d-aldosterone (Sigma Chemical, St. Louis, Mo.) was inserted subcutaneously at the nape of the neck. Aldosterone was administered at a dose of 0.75 g/hour. […] Animals were sacrificed from each group (n=8-13) after 7, 14, or 30 days of treatment.
Five m sections were deparaffinized in xylene (two, 5-10 min incubations) and rehydrated by 3 min incubations in ethanol as follows: two incubations in 100% ethanol followed by two incubations in 95% alcohol and one incubation in 70% alcohol. Once hydrated, sections were rinsed in tap water for 1 min and distilled water for 1 min. Endogenous peroxide activity was blocked by placing slides in 3.0% H2O2 for 15 min followed by a 5 min rinse in distilled water. Slides were processed for antigen retrieval using citric acid, pH 6.0. […]

Assay [6] deals with angiotensin II infused rats. Briefly: Assay A angiotensin II infusion model: urinary Na+/K+ ratio (natriuresis index). The following applies: saline-drinking rats, eplerenone 100 mpk. The source says: 24-hours food and fluid intake and urine output measured every day Urine samples collected every day for determination of urinary electrolytes. Electrolyte excretion. The ratio between daily urinary Na^+ excretion and urinary K^+ excretion (U Na^+/K^+ ratio) was used as an index for natriuresis. Urinary Na^+/K^+ ratio was similar in all groups before the start of the treatments, and increased similarly in all animals upon initiation of the high salt diet.

Where [7] appears, read: heart, quantitative RT-PCR, aldosterone/salt rats, 4 weeks, eplerenone 100 mpk p.o.

As for `C[C@]12CCC(=O)C=C1CC[C@@H]1[C@@H]2[C@@H](O)C[C@]2(C=O)[C@@H](C(=O)CO)CC[C@@H]12` [aldosterone], in the assay on aldosterone infused rats, the “Myocardial fibrosis (interstitial collagen volume fraction, hydroxyproline concentration)” value is “absence of myocardial fibrosis”.
As to `COC(=O)[C@@H]1CC2=CC(=O)CC[C@]2(C)[C@@]23O[C@@H]2C[C@@]2(C)[C@@H](CC[C@@]24CCC(=O)O4)[C@H]13` [eplerenone, Pregn-4-ene-7,21-dicarboxylic acid, 9,11-epoxy-17-hydroxy-3-oxo-, γ-lactone, methyl ester, (7α, 11α, 17β) -], in the assay on COX-2 (aldosterone infused rats (FIG. 31)), the “COX-2 upregulation in myocardium” value is reported as “prevention by eplerenone of COX-2 upregulation”. For the same compound, in the assay with COX-2 (setting [7]), the “COX-2 relative mRNA expression” value worked out at 1.8±0.36. The “Circulating (serum) osteopontin levels” value with osteopontin [1] is “marked decrease in circulating osteopontin levels”. For the same compound, the Cerebral injury entry in assay [2] is “reduced cerebral injury; also recorded: decrease in cerebral injury”. Besides, the “Osteopontin upregulation in myocardium” value with osteopontin [3] (aldosterone infused rats (FIG. 30)) is reported as “prevention by eplerenone of osteopontin upregulation”. Further, the “Osteopontin relative mRNA expression” value in the assay with osteopontin [3] (setting [7]) was 2.5±0.6. Besides, in assay [4] (captopril treated SHRSP (FIG. 35)), the Urinary protein excretion result is recorded as “inhibition of increased urinary protein excretion”. Also, in assay [4] (captopril treated SHRSP (FIG. 36)), the “Histopathological scores for renal injury” value is “reduction in histopathological scores for renal injury”. For the same compound, in assay [5], the “Staining in myocardial tissue for marker proteins (immunohistochemistry)” value was “markedly blunted the aldosterone+salt treatment induced staining”. The “Urinary Na+/K+ ratio (diuretic or natriuretic effect)” value in assay [6] was “did not produce a significant diuretic or natriuretic effect”.
